Experimental data taken from paper PMC8815882, “Screening the pandemic response box identified benzimidazole carbamates, Olorofim and ravuconazole as promising drug candidates for the treatment of eumycetoma” (PLoS Neglected Tropical Diseases, 2022).
Read-outs that look alike come from different tables or passages of the source.

What was measured:
Format in all cases: cell-based, Madurella mycetomatis
[1] = test system: M. mycetomatis genome strain MM55; assay: CLSI M38-A2 based in vitro susceptibility screening (XTT or resazurin), growth at fixed concentration; conditions: for activity at 25 µM / activity at 100 µM: Madurella mycetomatis
[2] = test system: ten different M. mycetomatis isolates; assay: MIC / MIC50 determination (XTT) in ten M. mycetomatis isolates; conditions: no asterisk
M. mycetomatis MM55 = assay: IC50 determination, 2-fold dilution series 16 to 0.03125 μM
[3] = 25 uM, replicate A, read-out: Percentage survival at 25um, 25 um A

“Miconazole [MMV689401, reference compound]” was tested, and the “Percentage survival at 25um, 25 uM B” value [1] was 77.7759%, the “Percentage survival at 25um, 25 uM C” value [1] was 51.747% and the “Percentage survival at 25um, 25 uM mean” value [1] was 64.2303%. The “Percentage survival at 25um, 25 um A” value ([1]; 25 uM, replicate A, M. mycetomatis MM55) was 63.1681%, the “Percentage survival at 100um, 100 uM mean” value ([1]; 100 uM, mean of three, M. mycetomatis MM55) was 51.5997% and the “Percentage survival at 100um, 100 uM A (first replicate column)” value ([1]; 100 uM, replicate 1, M. mycetomatis MM55) was 60.4441%. For the same molecule, the “Percentage survival at 100um, 100 uM A (second replicate column)” value ([1]; 100 uM, replicate 2, M. mycetomatis MM55) was 58.6196%, the “Percentage survival at 100um, 100 uM A (third replicate column)” value ([1]; 100 uM, replicate 3, M. mycetomatis MM55) was 35.7354% and the MIC50 ([2]; median MIC over ten M. mycetomatis isolates, read-out: MIC50) was 0.13 µM. For the same molecule, the “MIC range” value ([2]; range of MIC over ten M. mycetomatis isolates) was less than 0.03 to 0.25 µM.

With Nc1c(C(=O)NCc2ccco2)c2nc3ccccc3nc2n1CCN1CCCCC1 [MMV099714] the activity at 25 µM [1, 3] was 45.3%, the activity at 100 µM ([1]; 100 uM, mean of three replicates, read-out: Percentage survival at 100um, 100 uM mean) was 3.55% and the activity at 100 µM ([1]; 100 uM, replicate 1, read-out: Percentage survival at 100um, 100 uM A (first replicate column)) was -0.102%. For the same molecule, the activity at 100 µM ([1]; 100 uM, replicate 2, read-out: Percentage survival at 100um, 100 uM A (second replicate column)) was 7.05%, the activity at 100 µM ([1]; 100 uM, replicate 3, read-out: Percentage survival at 100um, 100 uM A (third replicate column)) was 3.69% and the activity at 25 µM ([1]; read-out: Percentage survival at 25um, 25 uM B) was -3.06%. The activity at 25 µM ([1]; read-out: Percentage survival at 25um, 25 uM C) was 13%, the activity at 25 µM ([1]; read-out: Percentage survival at 25um, 25 uM mean) was 18.4% and the “Drug static or cidal” value (M. mycetomatis MM55) was “Static”. For the same molecule, the IC50 (M. mycetomatis MM55; Madurella mycetomatis, MM55, read-out: IC50 1 um) was greater than 25 µM, the IC50 (M. mycetomatis MM55; Madurella mycetomatis, MM55, read-out: IC50 2 um) was greater than 25 µM and the IC50 (M. mycetomatis MM55; Madurella mycetomatis, MM55, read-out: IC50 3 um) was greater than 25 µM. For the same molecule, the IC50 (M. mycetomatis MM55; Madurella mycetomatis, MM55, read-out: IC50 mean) was greater than 25 µM, the IC90 (M. mycetomatis MM55; Madurella mycetomatis, MM55, read-out: IC90 1 um) was greater than 25 µM and the IC90 (M. mycetomatis MM55; Madurella mycetomatis, MM55, read-out: IC90 2 um) was greater than 25 µM. It also gave an IC90 (M. mycetomatis MM55; Madurella mycetomatis, MM55, read-out: IC90 3 um) greater than 25 µM and an IC90 (M. mycetomatis MM55; Madurella mycetomatis, MM55, read-out: IC90 mean) greater than 25 µM.

CCOC(=O)Nc1cc(NC(C)CC(C)CN(CC)CC)c2nc(-c3ccccc3)c(-c3ccccc3)nc2n1 (centres unmarked) [MMV1633967] showed an activity at 25 µM ([1]; 25 uM, mean, read-out: Percentage survival at 25um, 25 uM mean) of -1.71%, an activity at 25 µM [1, 3] of -4.99% and an activity at 25 µM ([1]; 25 uM, replicate B, read-out: Percentage survival at 25um, 25 uM B) of 0.0169%. It also gave an activity at 25 µM ([1]; 25 uM, replicate C, read-out: Percentage survival at 25um, 25 uM C) of -0.146%, an activity at 100 µM ([1]; 100 uM, mean, read-out: Percentage survival at 100um, 100 uM mean) of 60.2% and an activity at 100 µM ([1]; 100 uM, replicate (first column), read-out: Percentage survival at 100um, 100 uM A) of 73.9%. The activity at 100 µM ([1]; 100 uM, replicate (second column), read-out: Percentage survival at 100um, 100 uM A) was 96.6%, the activity at 100 µM ([1]; 100 uM, replicate (third column), read-out: Percentage survival at 100um, 100 uM A) was 10.1% and the “Drug static or cidal” value (M. mycetomatis MM55) was “Static”. The IC50 (M. mycetomatis MM55; Madurella mycetomatis, MM55, mean; read-out: IC50 mean) was greater than 25 µM, the IC90 (M. mycetomatis MM55; Madurella mycetomatis, MM55; read-out: IC90 mean) was greater than 25 µM and the IC50 (M. mycetomatis MM55; Madurella mycetomatis, MM55; replicate 1; read-out: IC50 1) was greater than 25 µM. For the same molecule, the IC90 (M. mycetomatis MM55; Madurella mycetomatis, MM55; replicate 1; read-out: IC90 1) was greater than 25 µM, the IC50 (M. mycetomatis MM55; Madurella mycetomatis, MM55; replicate 2; read-out: IC50 2) was greater than 25 µM and the IC90 (M. mycetomatis MM55; Madurella mycetomatis, MM55; replicate 2; read-out: IC90 2) was greater than 25 µM. For the same molecule, the IC50 (M. mycetomatis MM55; Madurella mycetomatis, MM55; replicate 3; read-out: IC50 3) was greater than 25 µM and the IC90 (M. mycetomatis MM55; Madurella mycetomatis, MM55; replicate 3; read-out: IC90 3) was greater than 25 µM.
